Reference: patent US20050197350A1, “Novel quinoline, tetrahydroquinazoline, and pyrimidine derivatives and methods of treatment related to the use thereof” (TAISHO PHARMACEUTICAL CO., LTD., priority 2003, published 2005)

The compounds below were run on MCH receptors (assay: MCH receptor activity class (method not given)). Conditions: class by percent of control at 10^-7 M or IC50.

Row | SMILES | class
1 | CN(C)c1cc(N[C@H]2CC[C@@H](NC(=O)Nc3ccccc3-c3ccccc3)CC2)nc2ccccc12 [compound 2124] | 3 (Class 3 The value of percent of control at 10^−7 M was more than 60% or the value of IC50 was more than 200 nM.)
2 | CCCCNC(=O)N[C@H]1CC[C@@H](Nc2cc(N(C)C)c3ccccc3n2)CC1 [compound 2125] | 3 (Class 3 The value of percent of control at 10^−7 M was more than 60% or the value of IC50 was more than 200 nM.)
3 | Cc1cccc(NC(=O)N[C@H]2CC[C@@H](Nc3cc(N(C)C)c4ccccc4n3)CC2)c1C [compound 2126] | 3 (Class 3 The value of percent of control at 10^−7 M was more than 60% or the value of IC50 was more than 200 nM.)
4 | CCOC(=O)c1cccc(NC(=O)N[C@H]2CC[C@@H](Nc3cc(N(C)C)c4ccccc4n3)CC2)c1 [compound 2127] | 3 (Class 3 The value of percent of control at 10^−7 M was more than 60% or the value of IC50 was more than 200 nM.)
5 | C=C(C)c1cccc(C(C)(C)NC(=O)N[C@H]2CC[C@@H](Nc3cc(N(C)C)c4ccccc4n3)CC2)c1 [compound 2128] | 3 (Class 3 The value of percent of control at 10^−7 M was more than 60% or the value of IC50 was more than 200 nM.)
6 | CN(C)c1cc(N[C@H]2CC[C@@H](NC(=O)Nc3cccc4ccccc34)CC2)nc2ccccc12 [compound 2130, N-(cis-4-{[4-(dimethylamino)quinolin-2-yl]amino}cyclohexyl)-N′-1-naphthylurea] | 1 (Class 1: The value of percent of control at 10^−7 M was less than 40% or the value of IC50 was less than 50 nM.)
7 | CN(C)c1cc(N[C@H]2CC[C@@H](NC(=O)NC3C[C@H]3c3ccccc3)CC2)nc2ccccc12 (some centres unmarked) [compound 2131] | 3 (Class 3 The value of percent of control at 10^−7 M was more than 60% or the value of IC50 was more than 200 nM.)
8 | CN(C)c1cc(N[C@H]2CC[C@@H](NC(=O)Nc3ccc(Oc4ccccc4)cc3)CC2)nc2ccccc12 [compound 2132] | 3 (Class 3 The value of percent of control at 10^−7 M was more than 60% or the value of IC50 was more than 200 nM.)
9 | CCCCCNC(=O)N[C@H]1CC[C@@H](Nc2cc(N(C)C)c3ccccc3n2)CC1 [compound 2133] | 3 (Class 3 The value of percent of control at 10^−7 M was more than 60% or the value of IC50 was more than 200 nM.)
10 | CC(NC(=O)NC1CCC(Nc2cc(N(C)C)c3ccccc3n2)CC1)c1ccccc1 (centres unmarked) [compound 2137] | 3 (Class 3 The value of percent of control at 10^−7 M was more than 60% or the value of IC50 was more than 200 nM.)
11 | CN(C)c1cc(N[C@H]2CC[C@@H](NC(=O)Nc3c(Cl)c(Cl)cc(Cl)c3Cl)CC2)nc2ccccc12 [compound 2138] | 3 (Class 3 The value of percent of control at 10^−7 M was more than 60% or the value of IC50 was more than 200 nM.)
12 | CN(C)c1cc(N[C@H]2CC[C@@H](NC(=O)Nc3ccc(Br)cc3Br)CC2)nc2ccccc12 [compound 2139] | 3 (Class 3 The value of percent of control at 10^−7 M was more than 60% or the value of IC50 was more than 200 nM.)
13 | CN(C)c1cc(N[C@H]2CC[C@@H](NC(=O)NCc3ccc(Cl)cc3Cl)CC2)nc2ccccc12 [compound 2140] | 3 (Class 3 The value of percent of control at 10^−7 M was more than 60% or the value of IC50 was more than 200 nM.)
14 | COc1ccc(NC(=O)N[C@H]2CC[C@@H](Nc3cc(N(C)C)c4ccccc4n3)CC2)c(OC)c1 [compound 2141] | 3 (Class 3 The value of percent of control at 10^−7 M was more than 60% or the value of IC50 was more than 200 nM.)
15 | CCOc1ccccc1NC(=O)N[C@H]1CC[C@@H](Nc2cc(N(C)C)c3ccccc3n2)CC1 [compound 2142] | 3 (Class 3 The value of percent of control at 10^−7 M was more than 60% or the value of IC50 was more than 200 nM.)
16 | CN(C)c1cc(N[C@H]2CC[C@@H](NC(=O)NCc3ccccc3F)CC2)nc2ccccc12 [compound 2143] | 3 (Class 3 The value of percent of control at 10^−7 M was more than 60% or the value of IC50 was more than 200 nM.)
17 | Cc1cc([N+](=O)[O-])ccc1NC(=O)N[C@H]1CC[C@@H](Nc2cc(N(C)C)c3ccccc3n2)CC1 [compound 2144] | 3 (Class 3 The value of percent of control at 10^−7 M was more than 60% or the value of IC50 was more than 200 nM.)
18 | Cc1ccc([N+](=O)[O-])cc1NC(=O)N[C@H]1CC[C@@H](Nc2cc(N(C)C)c3ccccc3n2)CC1 [compound 2145] | 3 (Class 3 The value of percent of control at 10^−7 M was more than 60% or the value of IC50 was more than 200 nM.)
19 | Cc1ccccc1CNC(=O)N[C@H]1CC[C@@H](Nc2cc(N(C)C)c3ccccc3n2)CC1 [compound 2146] | 3 (Class 3 The value of percent of control at 10^−7 M was more than 60% or the value of IC50 was more than 200 nM.)
20 | CN(C)c1cc(N[C@H]2CC[C@@H](NC(=O)Nc3ccccc3[N+](=O)[O-])CC2)nc2ccccc12 [compound 2147] | 3 (Class 3 The value of percent of control at 10^−7 M was more than 60% or the value of IC50 was more than 200 nM.)
21 | CN(C)c1cc(N[C@H]2CC[C@@H](NC(=O)Nc3ccc4c(c3)OCO4)CC2)nc2ccccc12 [compound 2148] | 3 (Class 3 The value of percent of control at 10^−7 M was more than 60% or the value of IC50 was more than 200 nM.)
22 | COc1cc(NC(=O)N[C@H]2CC[C@@H](Nc3cc(N(C)C)c4ccccc4n3)CC2)cc(OC)c1OC [compound 2149, N-(cis-4-{[4-(dimethylamino)quinolin-2-yl]amino}cyclohexyl)-N′-(3,4,5-trimethoxyphenyl)urea] | 1 (Class 1: The value of percent of control at 10^−7 M was less than 40% or the value of IC50 was less than 50 nM.)
23 | COc1ccc(NC(=O)N[C@H]2CC[C@@H](Nc3cc(N(C)C)c4ccccc4n3)CC2)cc1OC [compound 2150] | 3 (Class 3 The value of percent of control at 10^−7 M was more than 60% or the value of IC50 was more than 200 nM.)
24 | COc1ccc(NC(=O)N[C@H]2CC[C@@H](Nc3cc(N(C)C)c4ccccc4n3)CC2)cc1Cl [compound 2151] | 3 (Class 3 The value of percent of control at 10^−7 M was more than 60% or the value of IC50 was more than 200 nM.)
25 | CN(C)c1cc(N[C@H]2CC[C@@H](NC(=O)Nc3ccc(Br)cc3C(F)(F)F)CC2)nc2ccccc12 [compound 2152] | 3 (Class 3 The value of percent of control at 10^−7 M was more than 60% or the value of IC50 was more than 200 nM.)
26 | CN(C)c1cc(N[C@H]2CC[C@@H](NC(=O)NCc3ccc(Br)cc3)CC2)nc2ccccc12 [compound 2153] | 3 (Class 3 The value of percent of control at 10^−7 M was more than 60% or the value of IC50 was more than 200 nM.)
27 | Cc1cc(Cl)ccc1NC(=O)N[C@H]1CC[C@@H](Nc2cc(N(C)C)c3ccccc3n2)CC1 [compound 2154] | 3 (Class 3 The value of percent of control at 10^−7 M was more than 60% or the value of IC50 was more than 200 nM.)
28 | CN(C)c1cc(N[C@H]2CC[C@@H](NC(=O)NCc3ccc(F)cc3)CC2)nc2ccccc12 [compound 2155] | 3 (Class 3 The value of percent of control at 10^−7 M was more than 60% or the value of IC50 was more than 200 nM.)
29 | COc1ccc(NC(=O)N[C@H]2CC[C@@H](Nc3cc(N(C)C)c4ccccc4n3)CC2)c(C)c1 [compound 2156] | 3 (Class 3 The value of percent of control at 10^−7 M was more than 60% or the value of IC50 was more than 200 nM.)
